Results as given in US20240351997A1, “NOVEL PARP7 INHIBITOR AND USE THEREOF” (SHANGHAI QILU PHARMACEUTICAL RESEARCH AND DEVELOPMENT …, priority 2021, published 2024).

These compounds were tested against PARP7 (Homo sapiens (Human), UniProt Q7Z3E1) (assay: In vitro enzymology experiment of PARP7 (enzymatic inhibition)).
Format: biochemical
How it was run: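 Histone-coated plate ADP-ribosylation format: compound preincubated 10 min at room temperature with preincubated (25 °C, 10 min) enzyme mixture; incorporated biotin detected by streptavidin-HRP and QuantaRed fluorescence (Ex550/Em620).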

Chain of PARP7 (Q7Z3E1 whole entry): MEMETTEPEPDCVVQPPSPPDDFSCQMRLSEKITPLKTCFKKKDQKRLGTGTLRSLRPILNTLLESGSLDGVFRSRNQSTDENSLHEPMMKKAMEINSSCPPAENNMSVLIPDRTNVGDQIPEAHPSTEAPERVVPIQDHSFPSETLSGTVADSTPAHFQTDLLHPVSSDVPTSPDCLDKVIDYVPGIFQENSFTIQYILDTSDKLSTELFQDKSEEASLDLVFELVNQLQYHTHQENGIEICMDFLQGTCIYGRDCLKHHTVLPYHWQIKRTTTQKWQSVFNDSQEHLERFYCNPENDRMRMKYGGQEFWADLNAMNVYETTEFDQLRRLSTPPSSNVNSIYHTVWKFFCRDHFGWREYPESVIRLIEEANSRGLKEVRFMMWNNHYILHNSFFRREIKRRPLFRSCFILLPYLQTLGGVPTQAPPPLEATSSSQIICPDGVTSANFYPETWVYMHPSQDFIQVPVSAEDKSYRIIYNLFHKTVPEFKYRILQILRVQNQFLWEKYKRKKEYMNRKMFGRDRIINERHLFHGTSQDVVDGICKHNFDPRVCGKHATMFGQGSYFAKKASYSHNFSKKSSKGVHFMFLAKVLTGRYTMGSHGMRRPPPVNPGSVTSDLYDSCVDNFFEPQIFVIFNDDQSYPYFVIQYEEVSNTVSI

Q: With `O=C(OCCc1c[nH]c(=O)c(C(F)(F)F)c1)N1CCN(c2ncc(C3CCCCC3)cn2)CC1` [Example 118, 2-(6-Oxo-5-(trifluoromethyl)-1,6-dihydropyridin-3-yl)ethyl 4-(5-cyclohexylpyrimidin-2-yl)piperazine-1-carboxylate] as the compound, how does the IC50 read?
A: 0.93 nM

Q: For `O=C(OCCc1c[nH]c(=O)c(C(F)(F)F)c1)N1CCN(c2ncc(C3CCCC3)cn2)CC1` [Example 119, 2-(6-Oxo-5-(trifluoromethyl)-1,6-dihydropyridin-3-yl)ethyl 4-(5-cyclopentylpyrimidin-2-yl)piperazine-1-carboxylate], which IC50 is on record?
A: 0.24 nM

Q: How did the IC50 turn out when `CC(=O)c1cnc(N2CCN(C(=O)O[C@@H](C)Cc3c[nH]c(=O)c(C(F)(F)F)c3)CC2)nc1` [Example 120, (S)-1-(6-Oxo-5-(trifluoromethyl)-1,6-dihydropyridin-3-yl)propan-2-yl 4-(5-acetylpyrimidin-2-yl)piperazine-1-carboxylate] was run?
A: 0.66 nM

Q: With `CC[C@H]1CN(c2ncc(C(F)(F)F)cn2)CCN1C(=O)OCCc1c[nH]c(=O)c(C(F)(F)F)c1` [Example 121, 2-(6-Oxo-5-(trifluoromethyl)-1,6-dihydropyridin-3-yl)ethyl (S)-2-ethyl-4-(5-(trifluoromethyl)pyrimidin-2-yl)piperazine-1-carboxylate] as the compound, how does the IC50 read?
A: 0.54 nM

Q: `CC[C@@H]1CN(c2ncc(C(F)(F)F)cn2)CCN1C(=O)OCCc1c[nH]c(=O)c(C(F)(F)F)c1` [Example 122, 2-(6-Oxo-5-(trifluoromethyl)-1,6-dihydropyridin-3-yl)ethyl (R)-2-ethyl-4-(5-(trifluoromethyl)pyrimidin-2-yl)piperazine-1-carboxylate] was tested. Which IC50 did it give?
A: 0.69 nM

Q: For `CC[C@@H]1CN(C(=O)OCCc2c[nH]c(=O)c(C(F)(F)F)c2)CCN1c1ncc(C(F)(F)F)cn1` [Example 123, 2-(6-Oxo-5-(trifluoromethyl)-1,6-dihydropyridin-3-yl)ethyl (R)-3-ethyl-4-(5-(trifluoromethyl)pyrimidin-2-yl)piperazine-1-carboxylate], which IC50 is on record?
A: 0.87 nM

Q: For `CC[C@H]1CN(C(=O)OCCc2c[nH]c(=O)c(C(F)(F)F)c2)CCN1c1ncc(C(F)(F)F)cn1` [Example 124, 2-(6-Oxo-5-(trifluoromethyl)-1,6-dihydropyridin-3-yl)ethyl (S)-3-ethyl-4-(5-(trifluoromethyl)pyrimidin-2-yl)piperazine-1-carboxylate], which IC50 is on record?
A: 0.48 nM

Q: `O=C(OCCc1c[nH]c(=O)c(C(F)(F)F)c1)N1CC2CCC(C1)N2c1ncc(C(F)(F)F)cn1` [Example 125, 2-(6-Oxo-5-(trifluoromethyl)-1,6-dihydropyridin-3-yl)ethyl 8-(5-(trifluoromethyl)pyrimidin-2-yl)-3,8-diazabicyclo[3.2.1]octane-3-carboxylate] was tested. Which IC50 did it give?
A: 0.71 nM

Q: With `O=C(OCCc1c[nH]c(=O)c(C(F)(F)F)c1)N1C2CCC1CN(c1ncc(C(F)(F)F)cn1)C2` [Example 126, 2-(6-Oxo-5-(trifluoromethyl)-1,6-dihydropyridin-3-yl)ethyl 3-(5-(trifluoromethyl)pyrimidin-2-yl)-3,8-diazabicyclo[3.2.1]octane-8-carboxylate] as the compound, how does the IC50 read?
A: 1 nM

Q: How did the IC50 turn out when `O=C(OCCc1c[nH]c(=O)c(C(F)(F)F)c1)N1CCN(c2cnc(C(F)(F)F)cn2)CC1` [Example 127, 2-(6-Oxo-5-(trifluoromethyl)-1,6-dihydropyridin-3-yl)ethyl 4-(5-(trifluoromethyl)pyrazin-2-yl)piperazine-1-carboxylate] was run?
A: 0.49 nM

Q: Which IC50 does the source give for `N#CC[C@@H]1CN(c2ncc(C(F)(F)F)cn2)CCN1C(=O)OCCc1c[nH]c(=O)c(C(F)(F)F)c1` [Example 128, 2-(6-Oxo-5-(trifluoromethyl)-1,6-dihydropyridin-3-yl)ethyl (R)-2-(cyanomethyl)-4-(5-(trifluoromethyl)pyrimidin-2-yl)piperazine-1-carboxylate] here?
A: 0.81 nM

Q: How did the IC50 turn out when `O=C(OCCc1c[nH]c(=O)c(C(F)(F)F)c1)N1CCN(c2ncc(C(F)(F)F)cc2F)CC1` [Example 130, 2-(6-Oxo-5-(trifluoromethyl)-1,6-dihydropyridin-3-yl)ethyl 4-(3-fluoro-5-(trifluoromethyl)pyridin-2-yl)piperazine-1-carboxylate] was run?
A: 0.77 nM

Q: For `Cc1cc(C(F)(F)F)cnc1N1CCN(C(=O)OCCc2c[nH]c(=O)c(C(F)(F)F)c2)CC1` [Example 132, 2-(6-Oxo-5-(trifluoromethyl)-1,6-dihydropyridin-3-yl)ethyl 4-(3-methyl-5-(trifluoromethyl)pyridin-2-yl)piperazine-1-carboxylate], which IC50 is on record?
A: 0.78 nM

Q: `Cc1[nH]c(=O)c(C(F)(F)F)cc1C[C@H](C)OC(=O)N1CCN(c2ncc(C(F)(F)F)cn2)CC1` [Example 133, (S)-1-(2-Methyl-6-oxo-5-(trifluoromethyl)-1,6-dihydropyridin-3-yl)propan-2-yl 4-(5-(trifluoromethyl)pyrimidin-2-yl)piperazine-1-carboxylate] was tested. Which IC50 did it give?
A: 0.76 nM

Q: For `O=C(Oc1ccccc1-c1c[nH]c(=O)c(C(F)(F)F)c1)N1CCN(c2ncc(C(F)(F)F)cn2)CC1` [Example 134, 2-(6-Oxo-5-(trifluoromethyl)-1,6-dihydropyridin-3-yl)phenyl 4-(5-(trifluoromethyl)pyrimidin-2-yl)piperazine-1-carboxylate], which IC50 is on record?
A: 1.92 nM

Q: `Cc1ccc(OC(=O)N2CCN(c3ncc(C(F)(F)F)cn3)CC2)cc1-c1c[nH]c(=O)c(C(F)(F)F)c1` [Example 135, 4-Methyl-3-(6-oxo-5-(trifluoromethyl)-1,6-dihydropyridin-3-yl)phenyl 4-(5-(trifluoromethyl)pyrimidin-2-yl)piperazine-1-carboxylate] was tested. Which IC50 did it give?
A: 2.78 nM

Q: With `O=C(Oc1cncc(-c2c[nH]c(=O)c(C(F)(F)F)c2)c1)N1CCN(c2ncc(C(F)(F)F)cn2)CC1` [Example 136, 6′-Oxo-5′-(trifluoromethyl)-1′,6′-dihydro-[3,3′-bipyridin]-5-yl 4-(5-(trifluoromethyl)pyrimidin-2-yl)piperazine-1-carboxylate] as the compound, how does the IC50 read?
A: 3.53 nM

Q: Which IC50 does the source give for `O=C(Oc1ccnc(-c2c[nH]c(=O)c(C(F)(F)F)c2)c1)N1CCN(c2ncc(C(F)(F)F)cn2)CC1` [Example 137, 6′-Oxo-5′-(trifluoromethyl)-1′,6′-dihydro-[2,3′-bipyridin]-4-yl 4-(5-(trifluoromethyl)pyrimidin-2-yl)piperazine-1-carboxylate] here?
A: 2.4 nM

Q: For `Cc1cc(OC(=O)N2CCN(c3ncc(C(F)(F)F)cn3)CC2)cc(-c2c[nH]c(=O)c(C(F)(F)F)c2)c1` [Example 138, 3-Methyl-5-(6-oxo-5-(trifluoromethyl)-1,6-dihydropyridin-3-yl)phenyl 4-(5-(trifluoromethyl)pyrimidin-2-yl)piperazine-1-carboxylate], which IC50 is on record?
A: 1.8 nM

Q: For `O=C(Oc1ccc(F)c(-c2c[nH]c(=O)c(C(F)(F)F)c2)c1)N1CCN(c2ncc(C(F)(F)F)cn2)CC1` [Example 139, 4-Fluoro-3-(6-oxo-5-(trifluoromethyl)-1,6-dihydropyridin-3-yl)phenyl 4-(5-(trifluoromethyl)pyrimidin-2-yl)piperazine-1-carboxylate], which IC50 is on record?
A: 0.9 nM

Q: For `C[C@@H]1CN(c2ncc(C(F)(F)F)cn2)CCN1C(=O)Oc1cccc(-c2c[nH]c(=O)c(C(F)(F)F)c2)c1` [Example 140, 3-(6-Oxo-5-(trifluoromethyl)-1,6-dihydropyridin-3-yl)phenyl (R)-2-methyl-4-(5-(trifluoromethyl)pyrimidin-2-yl)piperazine-1-carboxylate], which IC50 is on record?
A: 2.86 nM

Q: With `N#Cc1ccc(N2CCN(C(=O)OCCc3c[nH]c(=O)c(C(F)(F)F)c3)CC2)nc1` [Example 144, 2-(6-Oxo-5-(trifluoromethyl)-1,6-dihydropyridin-3-yl)ethyl 4-(5-cyanopyridin-2-yl)piperazine-1-carboxylate] as the compound, how does the IC50 read?
A: 1.5 nM

Q: Which IC50 does the source give for `C[C@H]1CN(c2ncc(C(F)(F)F)cn2)C[C@H](C)N1C(=O)OCCc1c[nH]c(=O)c(C(F)(F)F)c1` [Example 145, 2-(6-Oxo-5-(trifluoromethyl)-1,6-dihydropyridin-3-yl)ethyl (2S,6S)-2,6-dimethyl-4-(5-(trifluoromethyl)pyrimidin-2-yl)piperazine-1-carboxylate] here?
A: 2.3 nM

Q: How did the IC50 turn out when `C[C@@H]1CN(c2ncc(C(F)(F)F)cn2)C[C@@H](C)N1C(=O)OCCc1c[nH]c(=O)c(C(F)(F)F)c1` [Example 148, 2-(6-Oxo-5-(trifluoromethyl)-1,6-dihydropyridin-3-yl)ethyl (2R,6R)-2,6-dimethyl-4-(5-(trifluoromethyl)pyrimidin-2-yl)piperazine-1-carboxylate] was run?
A: 0.77 nM

Q: `C[C@@H]1CN(C(=O)OCCc2c[nH]c(=O)c(C(F)(F)F)c2)C[C@@H](C)N1c1ncc(C(F)(F)F)cn1` [Example 149, 2-(6-Oxo-5-(trifluoromethyl)-1,6-dihydropyridin-3-yl)ethyl (3R,5R)-3,5-dimethyl-4-(5-(trifluoromethyl)pyrimidin-2-yl)piperazine-1-carboxylate] was tested. Which IC50 did it give?
A: 0.64 nM

Q: With `C[C@@H]1CN(c2ncc(C(F)(F)F)cn2)C[C@H](C)N1C(=O)OCCc1c[nH]c(=O)c(C(F)(F)F)c1` [Example 150, 2-(6-Oxo-5-(trifluoromethyl)-1,6-dihydropyridin-3-yl)ethyl (2S,6R)-2,6-dimethyl-4-(5-(trifluoromethyl)pyrimidin-2-yl)piperazine-1-carboxylate] as the compound, how does the IC50 read?
A: 0.71 nM

Q: With `C[C@@H]1CN(c2ncc(C3CC3)cn2)C[C@H](C)N1C(=O)OCCc1c[nH]c(=O)c(C(F)(F)F)c1` [Example 151, 2-(6-Oxo-5-(trifluoromethyl)-1,6-dihydropyridin-3-yl)ethyl (2R,6S)-4-(5-cyclopropylpyrimidin-2-yl)-2,6-dimethylpiperazine-1-carboxylate] as the compound, how does the IC50 read?
A: 1.1 nM

Q: How did the IC50 turn out when `O=C(OCCc1c[nH]c(=O)c(C(F)(F)F)c1)N1CCN(c2ncc(C3CC3)cn2)CC1` [Example 152, 2-(6-Oxo-5-(trifluoromethyl)-1,6-dihydropyridin-3-yl)ethyl 4-(5-cyclopropylpyrimidin-2-yl)piperazine-1-carboxylate] was run?
A: 0.76 nM

Q: For `C[C@@H]1CN(C(=O)OCCc2c[nH]c(=O)c(C(F)(F)F)c2)C[C@H](C)N1c1ncc(C(F)(F)F)cn1` [Example 153, 2-(6-Oxo-5-(trifluoromethyl)-1,6-dihydropyridin-3-yl)ethyl (3R,5S)-3,5-dimethyl-4-(5-(trifluoromethyl)pyrimidin-2-yl)piperazine-1-carboxylate], which IC50 is on record?
A: 0.65 nM
